Data reported in PubChem BioAssay (NCI).
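How tested: cells in 96-well plates exposed to compound for 48 hours at five concentrations. TGI denotes the concentration required for complete inhibition of growth.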

Tests used:
Test in all cases: NCI anticancer screen, dose series, 48 h
MDA-MB-231 breast = system: MDA-MB-231 breast
KM12 colon = system: KM12 colon
NCI/ADR-RES ovarian = system: NCI/ADR-RES ovarian
HOP-62 NSCLC = system: HOP-62 NSCLC
SK-MEL-5 melanoma = system: SK-MEL-5 melanoma
HT29 colon = system: HT29 colon
OVCAR-3 ovarian = system: OVCAR-3 ovarian
CCRF-CEM leukemia = system: CCRF-CEM leukemia
HS 578T breast = system: HS 578T breast
HL-60(TB) leukemia = system: HL-60(TB) leukemia
SW-620 colon = system: SW-620 colon
HCC-2998 colon = system: HCC-2998 colon
SK-MEL-2 melanoma = system: SK-MEL-2 melanoma
OVCAR-5 ovarian = system: OVCAR-5 ovarian
U251 CNS = system: U251 CNS
MALME-3M melanoma = system: MALME-3M melanoma
HCT-116 colon = system: HCT-116 colon
LOX IMVI melanoma = system: LOX IMVI melanoma
MOLT-4 leukemia = system: MOLT-4 leukemia
UO-31 renal = system: UO-31 renal
IGROV1 ovarian = system: IGROV1 ovarian
SN12C renal = system: SN12C renal
SK-OV-3 ovarian = system: SK-OV-3 ovarian
UACC-62 melanoma = system: UACC-62 melanoma
T-47D breast = system: T-47D breast
OVCAR-8 ovarian = system: OVCAR-8 ovarian
PC-3 prostate = system: PC-3 prostate
M14 melanoma = system: M14 melanoma
SNB-19 CNS = system: SNB-19 CNS
SNB-75 CNS = system: SNB-75 CNS
A498 renal = system: A498 renal
HOP-92 NSCLC = system: HOP-92 NSCLC
BT-549 breast = system: BT-549 breast
HCT-15 colon = system: HCT-15 colon
MDA-MB-435 = system: MDA-MB-435
MDA-N = system: MDA-N
COLO 205 colon = system: COLO 205 colon
A549 NSCLC = system: A549 NSCLC
TK-10 renal = system: TK-10 renal
ACHN renal = system: ACHN renal
OVCAR-4 ovarian = system: OVCAR-4 ovarian
EKVX NSCLC = system: EKVX NSCLC
NCI-H23 lung = system: NCI-H23 lung
NCI-H460 lung = system: NCI-H460 lung
UACC-257 melanoma = system: UACC-257 melanoma
CAKI-1 renal = system: CAKI-1 renal
NCI-H226 lung = system: NCI-H226 lung
SF-295 CNS = system: SF-295 CNS
MCF7 breast = system: MCF7 breast
SK-MEL-28 melanoma = system: SK-MEL-28 melanoma
K-562 leukemia = system: K-562 leukemia
786-0 renal = system: 786-0 renal
DU-145 prostate = system: DU-145 prostate
SF-539 CNS = system: SF-539 CNS
RXF 393 renal = system: RXF 393 renal
RPMI-8226 leukemia = system: RPMI-8226 leukemia
SF-268 CNS = system: SF-268 CNS
NCI-H522 lung = system: NCI-H522 lung

Question: Which results are given for `O=C(CCN1CCOCC1)c1ccc(Oc2ccc(F)cc2)cc1`?
Answer: TGI (MDA-MB-231 breast): 39 µM; TGI (KM12 colon): 32.6 µM; TGI (NCI/ADR-RES ovarian): 69 µM; TGI (HOP-62 NSCLC): > 100 µM; TGI (SK-MEL-5 melanoma): > 100 µM; TGI (HT29 colon): 34.2 µM; TGI (OVCAR-3 ovarian): 50.7 µM; TGI (CCRF-CEM leukemia): 57.1 µM; TGI (HS 578T breast): 40.8 µM; TGI (HL-60(TB) leukemia): 78.7 µM; TGI (SW-620 colon): 62.6 µM; TGI (HCC-2998 colon): > 100 µM; TGI (SK-MEL-2 melanoma): 57.1 µM; TGI (OVCAR-5 ovarian): 54.2 µM; TGI (U251 CNS): > 100 µM; TGI (MALME-3M melanoma): 40.9 µM; TGI (HCT-116 colon): 44.2 µM; TGI (LOX IMVI melanoma): 48.5 µM; TGI (MOLT-4 leukemia): 55.2 µM; TGI (UO-31 renal): 38.3 µM; TGI (IGROV1 ovarian): 39.4 µM; TGI (SN12C renal): > 100 µM; TGI (SK-OV-3 ovarian): > 100 µM; TGI (UACC-62 melanoma): 37 µM; TGI (T-47D breast): 42.6 µM; TGI (OVCAR-8 ovarian): 41.7 µM; TGI (PC-3 prostate): 34.2 µM; TGI (M14 melanoma): 38.3 µM; TGI (SNB-19 CNS): > 100 µM; TGI (SNB-75 CNS): 46.2 µM; TGI (A498 renal): > 100 µM; TGI (HOP-92 NSCLC): 49.5 µM; TGI (BT-549 breast): 35.9 µM; TGI (HCT-15 colon): 36.5 µM; TGI (MDA-MB-435): > 100 µM; TGI (MDA-N): 52.3 µM; TGI (COLO 205 colon): 47 µM; TGI (A549 NSCLC): > 100 µM; TGI (TK-10 renal): 32.5 µM; TGI (ACHN renal): 32.1 µM; TGI (OVCAR-4 ovarian): > 100 µM; TGI (EKVX NSCLC): 36.9 µM; TGI (NCI-H23 lung): 70.4 µM; TGI (NCI-H460 lung): > 100 µM; TGI (UACC-257 melanoma): 32.9 µM; TGI (CAKI-1 renal): 33 µM; TGI (NCI-H226 lung): 78 µM; TGI (SF-295 CNS): > 100 µM; TGI (MCF7 breast): 40.4 µM; TGI (SK-MEL-28 melanoma): 52.2 µM; TGI (K-562 leukemia): 51.4 µM; TGI (786-0 renal): 30.8 µM; TGI (DU-145 prostate): > 100 µM; TGI (SF-539 CNS): 38.7 µM

Question: For `CCOP(=O)(CN1CCNCCN(CP(=O)(OCC)OCC)CC1)OCC`, which TGI (MDA-MB-231 breast) is on record?
Answer: > 100 µM

Question: And the TGI (RXF 393 renal)?
Answer: > 100 µM

Question: What about the TGI (KM12 colon) of the same compound?
Answer: > 100 µM

Question: What about the TGI (NCI/ADR-RES ovarian) of the same compound?
Answer: > 100 µM

Question: And the TGI (HOP-62 NSCLC)?
Answer: > 100 µM

Question: What about the TGI (SK-MEL-5 melanoma) of the same compound?
Answer: > 100 µM

Question: What about the TGI (HT29 colon) of the same compound?
Answer: > 100 µM

Question: And the TGI (OVCAR-3 ovarian)?
Answer: > 100 µM

Question: What about the TGI (CCRF-CEM leukemia) of the same compound?
Answer: > 31.6 µM

Question: What about the TGI (HS 578T breast) of the same compound?
Answer: > 100 µM

Question: What about the TGI (HL-60(TB) leukemia) of the same compound?
Answer: > 100 µM

Question: What about the TGI (SW-620 colon) of the same compound?
Answer: > 100 µM

Question: What about the TGI (SK-MEL-2 melanoma) of the same compound?
Answer: > 100 µM

Question: And the TGI (OVCAR-5 ovarian)?
Answer: > 100 µM

Question: What about the TGI (U251 CNS) of the same compound?
Answer: > 100 µM

Question: What about the TGI (MALME-3M melanoma) of the same compound?
Answer: > 30.4 µM

Question: What about the TGI (HCT-116 colon) of the same compound?
Answer: > 100 µM

Question: What about the TGI (LOX IMVI melanoma) of the same compound?
Answer: > 100 µM

Question: What about the TGI (MOLT-4 leukemia) of the same compound?
Answer: > 100 µM

Question: And the TGI (UO-31 renal)?
Answer: > 100 µM

Question: And the TGI (IGROV1 ovarian)?
Answer: > 100 µM

Question: And the TGI (SN12C renal)?
Answer: > 100 µM

Question: What about the TGI (SK-OV-3 ovarian) of the same compound?
Answer: > 100 µM

Question: What about the TGI (UACC-62 melanoma) of the same compound?
Answer: > 100 µM

Question: And the TGI (T-47D breast)?
Answer: > 100 µM

Question: What about the TGI (OVCAR-8 ovarian) of the same compound?
Answer: > 100 µM

Question: And the TGI (PC-3 prostate)?
Answer: > 100 µM

Question: And the TGI (M14 melanoma)?
Answer: > 100 µM

Question: And the TGI (SNB-19 CNS)?
Answer: > 100 µM

Question: What about the TGI (SNB-75 CNS) of the same compound?
Answer: > 100 µM

Question: And the TGI (A498 renal)?
Answer: > 100 µM

Question: And the TGI (HOP-92 NSCLC)?
Answer: > 100 µM

Question: What about the TGI (BT-549 breast) of the same compound?
Answer: > 100 µM

Question: And the TGI (HCT-15 colon)?
Answer: > 100 µM

Question: And the TGI (MDA-MB-435)?
Answer: > 100 µM

Question: And the TGI (MDA-N)?
Answer: > 100 µM

Question: What about the TGI (COLO 205 colon) of the same compound?
Answer: > 100 µM

Question: And the TGI (A549 NSCLC)?
Answer: > 100 µM

Question: And the TGI (TK-10 renal)?
Answer: > 100 µM

Question: What about the TGI (ACHN renal) of the same compound?
Answer: > 100 µM

Question: What about the TGI (RPMI-8226 leukemia) of the same compound?
Answer: > 100 µM

Question: And the TGI (OVCAR-4 ovarian)?
Answer: > 100 µM

Question: And the TGI (EKVX NSCLC)?
Answer: > 100 µM

Question: And the TGI (SF-268 CNS)?
Answer: > 100 µM

Question: And the TGI (NCI-H23 lung)?
Answer: > 100 µM

Question: What about the TGI (NCI-H460 lung) of the same compound?
Answer: > 100 µM

Question: And the TGI (UACC-257 melanoma)?
Answer: > 100 µM

Question: What about the TGI (CAKI-1 renal) of the same compound?
Answer: > 100 µM

Question: And the TGI (NCI-H226 lung)?
Answer: > 100 µM

Question: What about the TGI (SF-295 CNS) of the same compound?
Answer: > 100 µM

Question: What about the TGI (MCF7 breast) of the same compound?
Answer: > 100 µM

Question: And the TGI (SK-MEL-28 melanoma)?
Answer: > 100 µM

Question: What about the TGI (K-562 leukemia) of the same compound?
Answer: > 100 µM

Question: And the TGI (786-0 renal)?
Answer: > 100 µM

Question: And the TGI (NCI-H522 lung)?
Answer: > 100 µM

Question: And the TGI (DU-145 prostate)?
Answer: > 100 µM

Question: What about the TGI (SF-539 CNS) of the same compound?
Answer: > 100 µM

Question: Which results are given for `CC1(C)Cc2c(c3ccccc3c3nc4c(nc23)c2c(c3ccccc34)OC(C)(C)C2)O1`?
Answer: TGI (MDA-MB-231 breast): > 100 µM; TGI (RXF 393 renal): > 100 µM; TGI (KM12 colon): > 100 µM; TGI (NCI/ADR-RES ovarian): > 100 µM; TGI (HOP-62 NSCLC): > 100 µM; TGI (SK-MEL-5 melanoma): > 100 µM; TGI (HT29 colon): > 100 µM; TGI (OVCAR-3 ovarian): > 100 µM; TGI (CCRF-CEM leukemia): > 100 µM; TGI (HS 578T breast): > 100 µM; TGI (HL-60(TB) leukemia): > 100 µM; TGI (SW-620 colon): > 100 µM; TGI (HCC-2998 colon): > 100 µM; TGI (SK-MEL-2 melanoma): > 100 µM; TGI (OVCAR-5 ovarian): > 100 µM; TGI (U251 CNS): > 100 µM; TGI (MALME-3M melanoma): > 100 µM; TGI (HCT-116 colon): > 100 µM; TGI (LOX IMVI melanoma): > 100 µM; TGI (MOLT-4 leukemia): > 100 µM; TGI (IGROV1 ovarian): > 100 µM; TGI (SN12C renal): > 100 µM; TGI (SK-OV-3 ovarian): > 100 µM; TGI (UACC-62 melanoma): > 100 µM; TGI (T-47D breast): > 100 µM; TGI (OVCAR-8 ovarian): > 100 µM; TGI (PC-3 prostate): > 100 µM; TGI (M14 melanoma): > 100 µM; TGI (SNB-19 CNS): > 100 µM; TGI (A498 renal): > 100 µM; TGI (HOP-92 NSCLC): > 100 µM; TGI (BT-549 breast): > 100 µM; TGI (HCT-15 colon): > 100 µM; TGI (MDA-MB-435): > 100 µM; TGI (MDA-N): > 100 µM; TGI (COLO 205 colon): > 100 µM; TGI (A549 NSCLC): > 100 µM; TGI (TK-10 renal): > 100 µM; TGI (ACHN renal): > 100 µM; TGI (RPMI-8226 leukemia): > 100 µM; TGI (OVCAR-4 ovarian): > 100 µM; TGI (EKVX NSCLC): > 100 µM; TGI (SF-268 CNS): > 100 µM; TGI (NCI-H23 lung): > 100 µM; TGI (NCI-H460 lung): > 100 µM; TGI (UACC-257 melanoma): > 100 µM; TGI (CAKI-1 renal): > 100 µM; TGI (SF-295 CNS): > 100 µM; TGI (MCF7 breast): > 100 µM; TGI (SK-MEL-28 melanoma): > 100 µM; TGI (786-0 renal): > 100 µM; TGI (NCI-H522 lung): > 100 µM; TGI (DU-145 prostate): > 100 µM; TGI (SF-539 CNS): > 100 µM
